Test [1] has as its target T1, human recombinant 5-HT2c receptor (Homo sapiens, UniProt P28335).
T1 construct: expressed in transfected cells; host or cells: CHO K1 (Chinese hamster ovary), stably transfected
T1 sequence (P28335 33-458): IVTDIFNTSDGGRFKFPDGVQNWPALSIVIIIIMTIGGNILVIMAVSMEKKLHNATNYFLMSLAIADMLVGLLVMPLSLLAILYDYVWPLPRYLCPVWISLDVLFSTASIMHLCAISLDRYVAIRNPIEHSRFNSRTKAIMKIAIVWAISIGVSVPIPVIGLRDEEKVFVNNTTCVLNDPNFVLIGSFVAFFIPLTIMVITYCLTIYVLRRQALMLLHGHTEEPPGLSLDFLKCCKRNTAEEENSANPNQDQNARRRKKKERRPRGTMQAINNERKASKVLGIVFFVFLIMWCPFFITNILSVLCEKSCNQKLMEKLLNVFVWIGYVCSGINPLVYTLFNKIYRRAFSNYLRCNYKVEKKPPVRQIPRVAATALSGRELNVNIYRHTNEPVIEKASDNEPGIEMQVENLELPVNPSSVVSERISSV
The test is described as follows: FLIPR fluorescent Ca2+ mobilisation agonist assay in CHO K1 cells (Method 1). The class given is cell-based. The following applies: for Emax / Emax %: percentage of mean maximal response to 10 μM 5-HT; for EC50: agonist affinity, FLIPR. A general note: A change in cytosolic calcium serves as a functional read-out for many receptors and channels.

In test [2] the target is T1, human recombinant 5-HT2c receptor. The experiment in a line: 3H-meselurgine radioligand binding SPA, membranes from Swiss 3T3 cells (Method 2). The following applies: 3H-meselurgine displacement, Cheng-Prusoff; Swiss 3T3 membranes; read-out: Binding Affinity Ki. The method, then: The compounds of the invention were evaluated for biological activity by measuring the agonist affinity (EC50) and efficacy (Emax) at the human recombinant 5-HT2c receptor expressed in CHO K1 cells, using a fluorescent based Ca^2+ mobilisation assay format compatible with FLIPR technology (Method 1). Additionally, the binding activity of a compound was determined by measuring its affinity for the human recombinant 5-HT2c receptor membranes from Swiss 3T3 cells (Method 2).
The compounds were tested for biological activity by their ability to inhibit binding of the radioligand ^3H-meselurgine at the human recombinant 5-HT2C receptor expressed in the Swiss 3T3 cells using a scintillation proximity assay (SPA) technology.
Swiss 3T3 stably transfected with the 5-HT2C receptor were cultured under standard cell culture techniques. Specifically, cells were grown in 50 mL growth medium (Dulbecco's Modified Eagle's Medium (DMEM) culture media supplemented with 10% dialysed foetal calf serum (FCS), 2 mM penicillin/streptomycin and 20 μg/mL geneticin) in 225 cm^2 flasks at 37° C. and 5% CO2. Cells were grown to 60-80% confluency, harvested using trypsin-EDTA and pelleted by centrifugation for long-term storage at −80° C.
Cell pellets were thawed on ice and resuspended in 3 mL of membrane preparation buffer (see Media and Buffers for composition) per 1 mL of packed cell. The suspension was homogenised on ice for several 5 s intervals using a hand-held homogeniser. The homogenate was then centrifuged at 1,000 rpm for 5 min at 4° C.
The supernatants were then collected and retained. Initial cell & nuclei pellets (P1) were subsequently rehomogenised and centrifuged using the conditions cited above, and the supernatants collected and pooled with those retained from the first spin.
The pooled supernatants were centrifuged at 19,500 rpm for 45 min at 4° C., and the supernatants discarded. The pellets (P2) were then resuspended in 3 mL of membrane preparation buffer per 1 mL of the original packed cell volume. Protein concentrations were subsequently measured and the membrane suspension was finally frozen in aliquots of set volume and stored at −80° C. prior to use in assays.
For each batch of membrane used, optimal concentrations of Polylysine YSi SPA beads and membrane were determined. The assay free radioligand concentration was expressed as a percentage of the total free radioligand concentration to give an estimate of the radioligand depletion.
The affinity of ^3H-meselurgine for the human recombinant 5-HT2c receptor was determined for each membrane batch at the selected protein and bead concentrations. […] The mean KD for ^3H-meselurgine at a batch of membranes was determined from data from a minimum of three separate assays.
The required amount of membrane, was thawed on ice and added to a pre-determined volume of bead suspension in 50 mM HEPES buffer, pH 7.4. The beads were then pre-coupled by incubating the predetermined protein quantity per mg of bead on a roller 4° C. for 1 h. Subsequently, the bead/membrane complex was spun down at 1000 rpm for 5 min. The resulting pellet was resuspended in assay buffer at the specific concentration required for the final assay.
An aliquot of [^3H]-meselurgine stock was diluted in binding assay buffer to give a pre-determined final assay concentration less than the equilibrium dissociation constant (KD) value.
All test compounds were prepared at a concentration of 4 mM in 100% dimethyl sulphoxide (DMSO) from dry samples.
The same volume of assay buffer was added to specific wells of the plate to enable subsequent measurement of total radioligand binding. Furthermore, 5 μL of Mianserin at 25 μM (2.5 μM final assay concentration was subsequently added to pre-determined wells to determine non-specific binding (NSB).

Where a name gives a salt, the structure may show the parent alone.

The values below come from patent US7928099B2, “Pyrimido [4,5-D] azepine derivatives as 5-HT2c agonists” (Pfizer Inc, priority 2007, dated 2011).

Consider `OCCNc1nc(Cc2ccccc2)nc2c1CCNCC2` [Example 23, 2-[(2-benzyl-6,7,8,9-tetrahydro-5H-pyrimido[4,5-d]azepin-4-yl)amino]ethanol hydrochloride], for which the Emax in test [1] (CHO-K1, efficacy) was 72.6%. Moreover, the EC50 in test [1] was 159 nM. Moreover, in test [2], the Ki amounted to 107 nM.
The like results for `Cc1ccccc1Cc1ncc2c(n1)CCNCC2` [Example 66, 2-(2-Methylbenzyl)-6,7,8,9-tetrahydro-5H-pyrimido[4,5-d]azepine] were, in that order, 70.5%, 332 nM and 304 nM.
The like results for `CCNc1nc(N(C)CC)nc2c1CCNCC2` [Example 98, N-2,N-4-diethyl-N-2-methyl-6,7,8,9-tetra-hydro-5H-pyrimido[4,5-d]-azepin-4-amine] were, in that order, 61.7%, 77 nM and 16.3 nM.
The like results for `OC1(CNc2nc(Cc3ccccc3)nc3c2CCNCC3)CCC1` [Example 41, 1-{[(2-benzyl-6,7,8,9-tetrahydro-5H-pyrimido[4,5-d]azepin-4-yl)amino]methyl}cyclobutanol hydrochloride] were, in that order, 74.7%, 57 nM and 86.9 nM.
On to `CC(C)[C@@H](CO)Nc1nc(Cc2ccccc2)nc2c1CCNCC2` [Example 24, (2S)-2-[(2-benzyl-6,7,8,9-tetrahydro-5H-pyrimido[4,5-d]azepin-4-yl)amino]-3-methylbutan-1-ol hydrochloride], for which the Emax in test [1] (CHO-K1, efficacy) was found to be 69.9%. Moreover, the EC50 in test [1] worked out at 119 nM. Besides, the Ki in test [2] amounted to 91.4 nM.
Consider `c1ccc(Cc2nc3c(c(-n4cccn4)n2)CCNCC3)cc1` [Example 1, 2-Benzyl-4-(1H-pyrazol-1-yl)-6,7,8,9-tetrahydro-5H-pyrimido[4,5-d]azepine], for which the Emax in test [1] (CHO-K1, efficacy) stood at 83.5%. Also, the EC50 in test [1] came to 224 nM. For the same compound, the inhibition constant (Ki) in test [2] is 72 nM.
Turning to `c1ccc(Cc2nc3c(c(-n4ccnc4)n2)CCNCC3)cc1` [Example 55, 2-Benzyl-4-imidazol-1-yl-6,7,8,9-tetrahydro-5H-pyrimido[4,5-d]azepine], the Emax in test [1] (CHO-K1, efficacy) came out at 72.6%. The EC50 in test [1] was 263 nM. Further, in test [2], the inhibition constant Ki amounted to 380 nM.
On the same counts, the results for `c1ccc(Cc2nc3c(c(NCCn4cccn4)n2)CCNCC3)cc1` [Example 27, 2-benzyl-N-[2-(1H-pyrazol-1-yl)ethyl]-6,7,8,9-tetrahydro-5H-pyrimido[4,5-d]azepin-4-amine hydrochloride] are 35%, 57.2 nM and 25.4 nM.
On the same counts, the results for `c1ccc(Cc2nc3c(c(NC4CCOC4)n2)CCNCC3)cc1` (stereo not drawn) [Example 39, 2-benzyl-N-(tetrahydrofuran-3-yl)-6,7,8,9-tetrahydro-5H-pyrimido[4,5-d]azepin-4-amine hydrochloride] are 30.6%, 516 nM and 696 nM.
In the case of `Clc1cccc(Cc2ncc3c(n2)CCNCC3)c1` [Example 56, 2-(3-Chlorobenzyl)-6,7,8,9-tetrahydro-5H-pyrimido[4,5-d]azepine], the EC50 in test [1] was found to be 180 nM. In addition, the Emax in test [1] (efficacy) came out at 55.9%. In test [2], the Ki was 83.9 nM.
With `CCOc1nc(C(C)c2ccccc2)nc2c1CCNCC2` (stereo not drawn) [Example 59, 4-Ethoxy-2-(1-phenylethyl)-6,7,8,9-tetrahydro-5H-pyrimido[4,5-d]azepine], the Emax in test [1] (CHO-K1, efficacy) is 33.1%. For the same compound, the EC50 in test [1] is 107 nM. Moreover, the Ki in test [2] was 49.3 nM.
As to `CN(C)c1ncc2c(n1)CCNCC2` [Example 50, N,N-dimethyl-6,7,8,9-tetrahydro-5H-pyrimido[4,5-d]azepin-2-amine hydrochloride], the Emax in test [1] (CHO-K1, efficacy) was found to be 100%. In addition, the concentration for a half-maximal effect (EC50) in test [1] was 481 nM. The Ki in test [2] is 552 nM.
The like results for `OC1CCN(c2nc(Cc3ccccc3)nc3c2CCNCC3)C1` (stereo not drawn) [Example 44, 1-(2-benzyl-6,7,8,9-tetrahydro-5H-pyrimido[4,5-d]azepin-4-yl)pyrrolidin-3-ol hydrochloride] were, in that order, 75.5%, 136 nM and 139 nM.
Consider `CC1CNCCc2cnc(Cc3ccccc3)nc21` (single isomer, unassigned) [47 (Peak 2), 2-Benzyl-9-methyl-6,7,8,9-tetrahydro-5H-pyrimido[4,5-d]azepine], for which, in test [1] (CHO-K1, efficacy), the maximal response (Emax) came out at 76.6%. Also, the EC50 in test [1] was determined as 233 nM. Moreover, the Ki in test [2] was 218 nM.
Turning to `COc1nc(C(F)(F)c2ccccc2)nc2c1CCNCC2` [Example 72A, 2-(Difluoro-phenyl-methyl)-4-methoxy-6,7,8,9-tetrahydro-5H-pyrimido[4,5-d]azepine hydrochloride], the EC50 in test [1] came out at 35.6 nM. The maximal effect (Emax) in test [1] (efficacy) was found to be 31.9%. For the same compound, in test [2], the inhibitory constant (Ki) was determined as 15 nM.
Consider `CC(C)(c1ccccc1)c1ncc2c(n1)CCNCC2` [Example 9, 2-(1-Methyl-1-phenylethyl)-6,7,8,9-tetrahydro-5H-pyrimido[4,5-d]azepine], for which the Emax in test [1] (CHO-K1, efficacy) was determined as 52.6%. The half-maximal effective concentration (EC50) in test [1] amounted to 732 nM. Also, the inhibitory constant (Ki) in test [2] came out at 401 nM.
The like results for `CN(CC1CC1)c1nc(N2CCSCC2)nc2c1CCNCC2` [Example 90, N-(cyclopropylmethyl)-N-methyl-2-thiomorpholin-4-yl-6,7,8,9-tetrahydro-5H-pyrimido[4,5-d]azepin-4-amine] were, in that order, 87.3%, 75.9 nM and 24.7 nM.
Turning to `CC1CNCCc2cnc(Cc3ccccc3)nc21` (single isomer, unassigned) [47 (Peak 1), 2-Benzyl-9-methyl-6,7,8,9-tetrahydro-5H-pyrimido[4,5-d]azepine], in test [1], the half-maximal effective concentration (EC50) was determined as 453 nM. The Emax % in test [1] (efficacy) worked out at 96.40%. Moreover, the inhibition constant Ki in test [2] was 133 nM.
With `OC1CCN(c2nc(Cc3ccccc3)nc3c2CCNCC3)CC1` [Example 38, 1-(2-benzyl-6,7,8,9-tetrahydro-5H-pyrimido[4,5-d]azepin-4-yl)piperidin-4-ol hydrochloride], in test [1] (CHO-K1, efficacy), the Emax stood at 66%. Moreover, the EC50 in test [1] came out at 336 nM. Also, in test [2], the inhibition constant (Ki) worked out at 514 nM.
As for `CN(Cc1ccccc1)c1nc2c(c(N3CCOCC3)n1)CCNCC2` [Example 15, N-benzyl-N-methyl-4-morpholin-4-yl-6,7,8,9-tetrahydro-5H-pyrimido[4,5,d]azepin-2-amine], the EC50 in test [1] turned out to be 202 nM. In addition, the Emax % in test [1] (efficacy) is 64.10%. Besides, the inhibition constant (Ki) in test [2] was 181 nM.
On to `CC(c1ccccc1)c1ncc2c(n1)CCNCC2` (stereo not drawn) [Example 2, 2-(1-Phenylethyl)-6,7,8,9-tetrahydro-5H-pyrimido[4,5-d]azepine], for which the maximal response (Emax) in test [1] (CHO-K1, efficacy) is 84.9%. The EC50 in test [1] is 198 nM. Moreover, the Ki in test [2] turned out to be 140 nM.
On the same counts, the results for `C[C@H]1COCCN1c1nc(Cc2ccccc2)nc2c1CCNCC2` [Example 45, 2-benzyl-4-[(3S)-3-methylmorpholin-4-yl]-6,7,8,9-tetrahydro-5H-pyrimido[4,5-d]azepine hydrochloride] are 88.4%, 69.5 nM and 28.4 nM.

By Emax is commonly meant the maximal effect, on the per cent scale that the assay sets. A word on the EC50: it is the concentration giving half of the maximal effect. A word on the Ki: it is a dissociation constant, usually derived from enzyme kinetics or from competition with a known ligand.
